# Experimental data published in ChEMBL document CHEMBL4118137, “Design, synthesis and antineoplastic activity of novel hybrids of podophyllotoxin and indirubin against human leukaemia cancer cells as multifunctional anti-MDR agents” (Bioorg Med Chem Lett, 2018).
# The source made the active and inactive calls. No cut-off for these calls is given here.
# What was measured:
# K562/VCR [1] = experiment: Antiproliferative activity against human K562/VCR cells after 72 hrs by CCK8 assay; type: functional, cell-based
# [2] = Resistance factor, ratio of IC50 for human K562/VCR cells to IC50 for human K562 cells; type: functional
# K562 = experiment: Antiproliferative activity against human K562 cells after 72 hrs by CCK8 assay; type: functional, cell-based; conditions: K562, 72 h
# HL-60 = experiment: Cytotoxicity against human HL60 cells; type: functional, cell-based
# K562/VCR [3] = experiment: Induction of autophagy in human K562/VCR cells assessed as upregulation of LC3-2 expression at 0.1 uM after 48 hrs by Western blot method relative to beta-actin; type: functional
# K562/VCR [4] = experiment: Induction of reactive oxygen species formation in human K562/VCR cells at 0.05 uM after 24 hrs by DCFH-DA staining-based flow cytometric method (reference value: 0.41%); type: functional
# K562/VCR [5] = experiment: Induction of autophagy in human K562/VCR cells assessed as upregulation of LC3-2 expression at 0.05 uM after 48 hrs by Western blot method relative to beta-actin; type: functional
# K562/VCR [6] = experiment: Cell cycle arrest in human K562/VCR cells assessed as accumulation at S phase at 0.05 uM after 48 hrs by propidium iodide staining-based flow cytometric method (reference value: 46.02%); type: functional
# K562/VCR [7] = experiment: Induction of autophagy in human K562/VCR cells assessed as upregulation of beclin-1 expression at 0.1 uM after 48 hrs by Western blot method relative to beta-actin; type: functional
# Homo sapiens = species: Homo sapiens; experiment: Inhibition of alpha-tubulin polymerization in human K562/VCR cells assessed as disruption of microtubule organization at 0.05 to 0.1 uM after 24 hrs by DAPI staining-based immunofluorescence assay; type: cell-based
# K562/VCR [8] = experiment: Induction of apoptosis in human K562/VCR cells assessed as early apoptotic cells at 0.05 uM after 48 hrs by annexin-V-FITC/propidium iodide staining-based flow cytometric method (reference value: 6.90%); type: functional
# K562/VCR [9] = experiment: Induction of apoptosis in human K562/VCR cells assessed as late apoptotic cells at 0.05 uM after 48 hrs by annexin-V-FITC/propidium iodide staining-based flow cytometric method (reference value: 1.90%); type: functional
# K562/VCR [10] = experiment: Induction of apoptosis in human K562/VCR cells assessed as downregulation of CDK1 expression at 0.1 uM after 48 hrs by Western blot method relative to beta-actin; type: functional
# K562/VCR [11] = experiment: Cell cycle arrest in human K562/VCR cells assessed as accumulation at G2 phase at 0.05 uM after 48 hrs by propidium iodide staining-based flow cytometric method (reference value: 7.78%); type: functional
# K562/VCR [12] = experiment: Induction of apoptosis in human K562/VCR cells assessed as late apoptotic cells at 0.1 uM after 48 hrs by annexin-V-FITC/propidium iodide staining-based flow cytometric method (reference value: 1.90%); type: functional
# K562/VCR [13] = experiment: Induction of reactive oxygen species formation in human K562/VCR cells at 0.1 uM after 24 hrs by DCFH-DA staining-based flow cytometric method (reference value: 0.41%); type: functional
# K562/VCR [14] = experiment: Induction of apoptosis in human K562/VCR cells assessed as upregulation of cleaved PARP expression at 0.05 uM after 48 hrs by Western blot method relative to beta-actin; type: functional
# K562/VCR [15] = experiment: Induction of apoptosis in human K562/VCR cells assessed as viable cells at 0.1 uM after 48 hrs by annexin-V-FITC/propidium iodide staining-based flow cytometric method (reference value: 91.05%); type: functional; conditions: read-out: Activity
# K562/VCR [16] = experiment: Induction of apoptosis in human K562/VCR cells assessed as downregulation of CDK2 expression at 0.1 uM after 48 hrs by Western blot method relative to beta-actin; type: functional
# K562/VCR [17] = experiment: Induction of apoptosis in human K562/VCR cells assessed as early apoptotic cells at 0.1 uM after 48 hrs by annexin-V-FITC/propidium iodide staining-based flow cytometric method (reference value: 6.90%); type: functional
# K562/VCR [18] = experiment: Reduction in mitochondrial membrane potential in human K562/VCR cells at 0.05 uM after 48 hrs by JC1 probe-based flow cytometric method (reference value: 2.65%); type: functional; design: scale not given: the % may be the effect or the level left
# K562/VCR [19] = experiment: Downregulation of MRP-1 expression in human K562/VCR cells at 0.05 uM after 48 hrs by Western blot method relative to beta-actin; type: functional
# K562/VCR [20] = experiment: Cell cycle arrest in human K562/VCR cells assessed as accumulation at G1 phase at 0.05 uM after 48 hrs by propidium iodide staining-based flow cytometric method (reference value: 46.20%); type: functional
# K562/VCR [21] = experiment: Induction of apoptosis in human K562/VCR cells assessed as necrotic cells at 0.05 uM after 48 hrs by annexin-V-FITC/propidium iodide staining-based flow cytometric method (reference value: 0.15%); type: functional
# K562/VCR [22] = experiment: Induction of apoptosis in human K562/VCR cells assessed as necrotic cells at 0.1 uM after 48 hrs by annexin-V-FITC/propidium iodide staining-based flow cytometric method (reference value: 0.15%); type: functional
# K562/VCR [23] = experiment: Downregulation of P-gp expression in human K562/VCR cells at 0.05 uM after 48 hrs by Western blot method relative to beta-actin; type: functional
# K562/VCR [24] = experiment: Induction of apoptosis in human K562/VCR cells assessed as upregulation of cleaved PARP expression at 0.1 uM after 48 hrs by Western blot method relative to beta-actin; type: functional
# K562/VCR [25] = experiment: Cell cycle arrest in human K562/VCR cells assessed as accumulation at G1 phase at 0.1 uM after 48 hrs by propidium iodide staining-based flow cytometric method (reference value: 46.20%); type: functional
# [26] = target: RAC-alpha serine/threonine-protein kinase (Homo sapiens) (UniProt P31749); experiment: Inhibition of AKT phosphorylation in human K562/VCR cells at 0.1 uM after 48 hrs by Western blot method relative to beta-actin; type: cell-based
# K562/VCR [27] = experiment: Downregulation of P-gp expression in human K562/VCR cells at 0.1 uM after 48 hrs by Western blot method relative to beta-actin; type: functional
# [28] = target: T1, c-Jun N-terminal kinase, JNK (Homo sapiens) (UniProt P45983+P53779+P45984); experiment: Induction of JNK phosphorylation in human K562/VCR cells at 0.05 uM after 48 hrs by Western blot method relative to beta-actin; type: cell-based
# K562/VCR [29] = experiment: Downregulation of MRP-1 expression in human K562/VCR cells at 0.1 uM after 48 hrs by Western blot method relative to beta-actin; type: functional
# K562/VCR [30] = experiment: Induction of autophagy in human K562/VCR cells assessed as upregulation of beclin-1 expression at 0.05 uM after 48 hrs by Western blot method relative to beta-actin; type: functional
# [31] = target: T1, c-Jun N-terminal kinase, JNK (Homo sapiens); experiment: Induction of JNK phosphorylation in human K562/VCR cells at 0.1 uM after 48 hrs by Western blot method relative to beta-actin; type: cell-based
# K562/VCR [32] = experiment: Induction of apoptosis in human K562/VCR cells assessed as downregulation of CDK2 expression at 0.05 uM after 48 hrs by Western blot method relative to beta-actin; type: functional
# K562/VCR [33] = experiment: Induction of apoptosis in human K562/VCR cells assessed as viable cells at 0.05 uM after 48 hrs by annexin-V-FITC/propidium iodide staining-based flow cytometric method (reference value: 91.05%); type: functional; conditions: read-out: Activity
# K562/VCR [34] = experiment: Induction of apoptosis in human K562/VCR cells assessed as downregulation of CDK1 expression at 0.05 uM after 48 hrs by Western blot method relative to beta-actin; type: functional
# [35] = target: RAC-alpha serine/threonine-protein kinase (Homo sapiens) (UniProt P31749); experiment: Inhibition of AKT phosphorylation in human K562/VCR cells at 0.05 uM after 48 hrs by Western blot method relative to beta-actin; type: cell-based
# K562/VCR [36] = experiment: Cell cycle arrest in human K562/VCR cells assessed as accumulation at S phase at 0.1 uM after 48 hrs by propidium iodide staining-based flow cytometric method (reference value: 46.02%); type: functional
# K562/VCR [37] = experiment: Cell cycle arrest in human K562/VCR cells assessed as accumulation at G2 phase at 0.1 uM after 48 hrs by propidium iodide staining-based flow cytometric method (reference value: 7.78%); type: functional
# K562/VCR [38] = experiment: Reduction in mitochondrial membrane potential in human K562/VCR cells at 0.1 uM after 48 hrs by JC1 probe-based flow cytometric method (reference value: 2.65%); type: functional; design: scale not given: the % may be the effect or the level left
# Chain of RAC-alpha serine/threonine-protein kinase (Homo sapiens) (P31749 whole entry): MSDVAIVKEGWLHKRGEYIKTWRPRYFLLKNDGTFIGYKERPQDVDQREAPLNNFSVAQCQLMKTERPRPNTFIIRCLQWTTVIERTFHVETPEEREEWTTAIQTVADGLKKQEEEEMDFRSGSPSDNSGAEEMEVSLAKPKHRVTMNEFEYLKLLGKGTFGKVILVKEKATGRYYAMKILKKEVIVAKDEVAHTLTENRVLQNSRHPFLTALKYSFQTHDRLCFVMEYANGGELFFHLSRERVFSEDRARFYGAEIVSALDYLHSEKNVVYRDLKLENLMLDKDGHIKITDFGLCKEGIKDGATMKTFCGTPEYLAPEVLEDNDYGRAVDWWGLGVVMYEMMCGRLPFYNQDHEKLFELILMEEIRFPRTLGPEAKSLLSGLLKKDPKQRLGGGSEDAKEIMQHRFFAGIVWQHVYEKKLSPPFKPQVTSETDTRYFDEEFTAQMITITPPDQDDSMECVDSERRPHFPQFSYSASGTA
smiles,measurement,setting,value
COc1cc([C@@H]2c3cc4c(cc3[C@H](OC(=O)CCCCCN3C(=O)/C(=C5\Nc6ccccc6C5=O)c5ccccc53)[C@H]3COC(=O)[C@H]23)OCO4)cc(OC)c1OC,IC50,K562/VCR [1],85700 nM
same,Ratio IC50,[2],5.02
same,IC50,K562,17000 nM
CN(C)CCN1C(=O)/C(=C2\Nc3ccccc3C2=O)c2ccccc21,IC50,HL-60,3560 nM
COc1cc([C@@H]2c3cc4c(cc3[C@H](OC(=O)CN3C(=O)/C(=C5\Nc6ccccc6C5=O)c5ccccc53)[C@H]3COC(=O)[C@H]23)OCO4)cc(OC)c1OC,fold change (FC),K562/VCR [3],0.63
same,Activity,K562/VCR [4],24.27%
same,fold change (FC),K562/VCR [5],0.78
same,Activity,K562/VCR [6],29.81%
same,fold change (FC),K562/VCR [7],0.6
same,inhibition,Homo sapiens,Active
same,Activity,K562/VCR [8],13.48%
same,Activity,K562/VCR [9],9.61%
same,fold change (FC),K562/VCR [10],0.32
same,Activity,K562/VCR [11],46.93%
same,IC50,K562/VCR [1],76 nM
same,Activity,K562/VCR [12],18.91%
same,Activity,K562/VCR [13],39.84%
same,fold change (FC),K562/VCR [14],0.46
same,viability at 0.1 µM,K562/VCR [15],52.4%
same,fold change (FC),K562/VCR [16],0.36
same,Activity,K562/VCR [17],28.58%
same,Activity,K562/VCR [18],19.44%
same,fold change (FC),K562/VCR [19],0.31
same,Activity,K562/VCR [20],23.26%
same,Activity,K562/VCR [21],0.07%
same,Ratio IC50,[2],2.23
same,Activity,K562/VCR [22],0.1%
same,fold change (FC),K562/VCR [23],0.4
same,fold change (FC),K562/VCR [24],0.56
same,Activity,K562/VCR [25],17.33%
same,IC50,K562,34 nM
same,fold change (FC),[26],0.43
same,fold change (FC),K562/VCR [27],0.33
same,fold change (FC),[28],0.7
same,fold change (FC),K562/VCR [29],0.24
same,fold change (FC),K562/VCR [30],0.52
same,fold change (FC),[31],0.84
same,fold change (FC),K562/VCR [32],0.44
same,viability at 0.05 µM,K562/VCR [33],76.8%
same,fold change (FC),K562/VCR [34],0.44
same,fold change (FC),[35],0.6
same,Activity,K562/VCR [36],25.7%
same,Activity,K562/VCR [37],56.97%
same,Activity,K562/VCR [38],40.38%
COc1cc([C@@H]2c3cc4c(cc3[C@H](OC(=O)CCCN3C(=O)/C(=C5\Nc6ccccc6C5=O)c5ccccc53)[C@H]3COC(=O)[C@H]23)OCO4)cc(OC)c1OC,IC50,K562/VCR [1],1750 nM
same,Ratio IC50,[2],0.97
same,IC50,K562,1790 nM
COc1cc([C@@H]2c3cc4c(cc3[C@@H](O[C@@H]3O[C@@H]5CO[C@@H](C)O[C@H]5[C@H](O)[C@H]3O)[C@H]3COC(=O)[C@H]23)OCO4)cc(OC)c1O [ETOPOSIDE],IC50,K562/VCR [1],11800 nM
same,Ratio IC50,[2],15.49
same,IC50,K562,764 nM
